In assay [1] the test system is mPTP. Nature of the assay: mPTP activity assay in isolated rat brain mitochondria. The assay is classed as biochemical. To be noted: for mPTP Rat brain pIC50: fluorescence at 10 min timepoint. Here is the method: MPTP activity was measured in brain mitochondria freshly isolated from female Sprague Dawley (250 to 300 gram) rats. Anaesthetised rats were perfused in-situ with −40 ml cold Dulbecco's Phosphate Buffered Saline (DPBS), then brains dissected and transferred into 30 ml Isolation Buffer (225 mM mannitol, 75 mM sucrose, 1 mM EGTA, adjusted to pH 7.4 with 1M NaOH). The brain was minced using tweezers and a scalpel into −5 mm pieces then transferred into a 50 ml Potterton Dounce homogenization tube on ice containing 10 ml ice-cold isolation buffer (as above with addition of Complete Protease inhibitor; 1 tablet per 50 ml buffer). Homogenisation was carried out using a teflon pestle at 1800 rpm. The slurry was centrifuged at 2000 g for 10 min at 4° C., then the supernatant centrifuged at 12,000 g for 9 min. The pellet was resuspended with a dounce homogeniser in isolation buffer as above but with the addition of 0.02% digitonin, centrifuged at 12,000 g for 11 min and finally resuspended in 5 ml modified isolation buffer (as above but with EGTA reduced to 0.1 mM).
Test compounds were prepared in 384 well polypropylene assay plates as described above for the liver mitochondria assay. A stock mitochondria/Fluo5N assay solution was prepared in 5.6 ml assay buffer (120 mM mannitol, 40 mM MOPS, 5 mM KH2PO4, 60 mM KCl, 10 mM pyruvate, 2 mM malate, 2 mM MgCl2, 20 μM ADP, 1.26 μM oligomycin A, adjusted to pH 7.4) supplemented with Fluo5N pentapotassium salt (2 μM) and 1 ml mitochondria suspension, then transferred (15 μl) into the assay plate containing test compounds and incubated for 10 min at RT. Assay plates were then transferred to a FLIPR Tetra plate reader (Molecular Devices). Dye fluorescence was then measured every 3 sec for a total of 10 min.

Assay [2] relates to mPTP. Description: mPTP activity (Ca2+ retention) assay in isolated rat liver mitochondria. The format is biochemical. As to conditions: examples tested by different contract research organisations, believed comparable. In a few lines:
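pIC50 was taken from Fluo5N fluorescence at 10 min after a 75 μM CaCl2 bolus, scaled between DMSO (0%) and 5 μM cyclosporin A (100%). Compounds, ten half-log concentrations from 30 μM to 1 nM final, sat 10 min at RT with fresh female Sprague Dawley rat liver mitochondria energized by succinate plus rotenone.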

The results in this text go back to patent US12491185B2, “Inhibitors of mPTP” (NRG Therapeutics Ltd, priority 2023, dated 2025).

`CCC(F)(CNC(=O)c1nccc(=O)[nH]1)Cc1ccc(F)cc1F` (single isomer, unassigned) [Example 255, N-(2-(2,4-difluorobenzyl)-2-fluorobutyl)-6-oxo-1,6-dihydropyrimidine-2-carboxamide]: in assay [1], the “mPTP Rat brain pIC50” value was 7.29. Moreover, in assay [2], the “mPTP Rat liver pIC50” value was found to be 6.45.
For `CCC(F)(CNC(=O)c1nccc(=O)[nH]1)Cc1ccc(F)cc1F` (single isomer, unassigned) [Example 256, N-(2-(2,4-difluorobenzyl)-2-fluorobutyl)-6-oxo-1,6-dihydropyrimidine-2-carboxamide], the “mPTP Rat brain pIC50” value in assay [1] was found to be 6.13. In addition, the “mPTP Rat liver pIC50” value in assay [2] is reported as 5.09.
With `CC(CNC(=O)c1ncc(F)c(=O)[nH]1)(Cc1ccc(F)cc1F)C1CC1` (single isomer, unassigned) [Example 257, N-[2-cyclopropyl-3-(2,4-difluorophenyl)-2-methylpropyl]-5-fluoro-4-oxo-3H-pyrimidine-2-carboxamide], in assay [1], the “mPTP Rat brain pIC50” value was 8.37. Moreover, the “mPTP Rat liver pIC50” value in assay [2] was determined as 6.82.
On to `CC(CNC(=O)c1ncc(F)c(=O)[nH]1)(Cc1ccc(F)cc1F)C1CC1` (single isomer, unassigned) [Example 258, N-[2-cyclopropyl-3-(2,4-difluorophenyl)-2-methylpropyl]-5-fluoro-4-oxo-3H-pyrimidine-2-carboxamide], for which the “mPTP Rat brain pIC50” value in assay [1] is 7.71. In addition, the “mPTP Rat liver pIC50” value in assay [2] is listed as 6.39.
As to `CC(CNC(=O)c1ncc(F)c(=O)[nH]1)(Cc1ccc(F)cc1)C1CC1` (single isomer, unassigned) [Example 261, N-[2-cyclopropyl-3-(4-fluorophenyl)-2-methylpropyl]-5-fluoro-4-oxo-3H-pyrimidine-2-carboxamide], the “mPTP Rat brain pIC50” value in assay [1] is recorded as 8.29. Further, in assay [2], the “mPTP Rat liver pIC50” value came to 7.13.
As to `CC(CNC(=O)c1ncc(F)c(=O)[nH]1)(Cc1ccc(F)cc1)C1CC1` (single isomer, unassigned) [Example 262, N-[2-cyclopropyl-3-(4-fluorophenyl)-2-methylpropyl]-5-fluoro-4-oxo-3H-pyrimidine-2-carboxamide], the “mPTP Rat brain pIC50” value in assay [1] was 7.45. Also, the “mPTP Rat liver pIC50” value in assay [2] is 6.00.
Consider `CC(CNC(=O)c1ncc(Cl)c(=O)[nH]1)(Cc1ccc(F)cc1)C1CC1` (single isomer, unassigned) [Example 263, 5-Chloro-N-[2-cyclopropyl-3-(4-fluorophenyl)-2-methylpropyl]-4-oxo-3H-pyrimidine-2-carboxamide], for which the “mPTP Rat brain pIC50” value in assay [1] was found to be 8.09. For the same molecule, the “mPTP Rat liver pIC50” value in assay [2] came out at 6.54.
On to `CC(CNC(=O)c1ncc(Cl)c(=O)[nH]1)(Cc1ccc(F)cc1)C1CC1` (single isomer, unassigned) [Example 264, 5-Chloro-N-[2-cyclopropyl-3-(4-fluorophenyl)-2-methylpropyl]-4-oxo-3H-pyrimidine-2-carboxamide], for which the “mPTP Rat brain pIC50” value in assay [1] is listed as 7.29. The “mPTP Rat liver pIC50” value in assay [2] is reported as 6.09.
Consider `Cc1cnc(C(=O)NCC(C)(Cc2ccc(F)cc2)C2CC2)[nH]c1=O` (single isomer, unassigned) [Example 267], for which the “mPTP Rat brain pIC50” value in assay [1] is given as 7.32. Moreover, the “mPTP Rat liver pIC50” value in assay [2] is 6.55.
Take `Cc1cnc(C(=O)NCC(C)(Cc2ccc(F)cc2)C2CC2)[nH]c1=O` (single isomer, unassigned) [Example 268]: the “mPTP Rat brain pIC50” value in assay [1] is 7.02. Moreover, the “mPTP Rat liver pIC50” value in assay [2] is recorded as 6.04.
`CC(CNC(=O)c1cc(O)no1)(Cc1ccc(F)cc1F)C1CC1` (single isomer, unassigned) [Example 269]: the “mPTP Rat brain pIC50” value in assay [1] stood at 7.73. Besides, in assay [2], the “mPTP Rat liver pIC50” value is recorded as 6.78.
For `CC(CNC(=O)c1cc(O)no1)(Cc1ccc(F)cc1F)C1CC1` (single isomer, unassigned) [Example 270], in that order: 6.51 and 5.39.
Consider `CC(CNC(=O)c1cc(O)no1)(Cc1ccc(F)cc1)C1CC1` (single isomer, unassigned) [Example 271], for which the “mPTP Rat brain pIC50” value in assay [1] was found to be 7.59. In addition, the “mPTP Rat liver pIC50” value in assay [2] amounted to 6.83.
As to `CC(CNC(=O)c1cc(O)no1)(Cc1ccc(F)cc1)C1CC1` (single isomer, unassigned) [Example 272], the “mPTP Rat brain pIC50” value in assay [1] came out at 6.35. For the same molecule, in assay [2], the “mPTP Rat liver pIC50” value was found to be 4.52.
As to `CC(CNC(=O)c1noc(=O)[nH]1)(Cc1ccc(F)cc1F)C1CC1` (single isomer, unassigned) [Example 273], the “mPTP Rat brain pIC50” value in assay [1] was 7.92. The “mPTP Rat liver pIC50” value in assay [2] worked out at 6.50.
In the case of `CC(CNC(=O)c1noc(=O)[nH]1)(Cc1ccc(F)cc1F)C1CC1` (single isomer, unassigned) [Example 274], in assay [1], the “mPTP Rat brain pIC50” value stood at 8.5. In addition, in assay [2], the “mPTP Rat liver pIC50” value came to 6.85.
On to `CC(CNC(=O)c1noc(=O)[nH]1)(Cc1ccc(F)cc1)C1CC1` (single isomer, unassigned) [Example 275, N-(2-cyclopropyl-3-(4-fluorophenyl)-2-methylpropyl)-5-oxo-4,5-dihydro-1,2,4-oxadiazole-3-carboxamide], for which, in assay [1] (Fluo5N fluorescence at 10 min after 75 μM Ca2+), the “mPTP rat brain mitochondria pIC50” value was “highest activity”. Further, in assay [1], the “mPTP Rat brain pIC50” value was determined as 8.57. Moreover, the “mPTP Rat liver pIC50” value in assay [2] is on record as 6.75.
Take `CC(CNC(=O)c1noc(=O)[nH]1)(Cc1ccc(F)cc1)C1CC1` (single isomer, unassigned) [Example 276, N-(2-cyclopropyl-3-(4-fluorophenyl)-2-methylpropyl)-5-oxo-4,5-dihydro-1,2,4-oxadiazole-3-carboxamide]: the “mPTP Rat brain pIC50” value in assay [1] turned out to be 7.27. For the same molecule, in assay [2], the “mPTP Rat liver pIC50” value worked out at 5.82.
For `O=C(NCC1(Cc2ccccc2)CCC1)c1cncc(O)c1` [Example 1, N-((1-benzylcyclobutyl)methyl)-5-hydroxynicotinamide], the “mPTP Rat brain pIC50” value in assay [1] came out at 7.27. The “mPTP Rat liver pIC50” value in assay [2] came out at 6.10.
For `O=C(NCC1(Cc2ccccc2)CCC1)c1cncc(O)n1` [Example 2, N-((1-benzylcyclobutyl)methyl)-6-hydroxypyrazine-2-carboxamide], in that order: 6.95 and 5.64.
In the case of `Cc1ncc(C(=O)NCC2(Cc3ccccc3)CCC2)cc1O` [Example 3, N-((1-benzylcyclobutyl)methyl)-5-hydroxy-6-methylnicotinamide], in assay [1], the “mPTP Rat brain pIC50” value is given as 6.89. Moreover, the “mPTP Rat liver pIC50” value in assay [2] is given as 6.02.
For `Cc1c(O)cncc1C(=O)NCC1(Cc2ccccc2)CCC1` [Example 4, N-((1-benzylcyclobutyl)methyl)-5-hydroxy-4-methylnicotinamide], in that order: 6.56 and 5.77.
For `O=C(NCC1(Cc2ccccc2)CCC1)c1cnn[nH]1` [Example 5, N-((1-benzylcyclobutyl)methyl)-1H-1,2,3-triazole-5-carboxamide], in that order: 6.72 and 5.61.
For `O=C(NCC1(Cc2ccccc2)CCC1)c1nccc(=O)[nH]1` [Example 7, N-((1-benzylcyclobutyl)methyl)-6-oxo-1,6-dihydropyrimidine-2-carboxamide], the “mPTP Rat brain pIC50” value in assay [1] amounted to 7.42. Further, the “mPTP Rat liver pIC50” value in assay [2] is reported as 5.97.
Consider `O=C(NCC1(Cc2ccccc2)CCC1)c1nc(=O)[nH][nH]1` [Example 8, N-((1-benzylcyclobutyl)methyl)-5-oxo-2,5-dihydro-1H-1,2,4-triazole-3-carboxamide], for which, in assay [1], the “mPTP Rat brain pIC50” value turned out to be 7.40. Besides, the “mPTP Rat liver pIC50” value in assay [2] is on record as 6.32.
Turning to `Cc1cnc(C(=O)NCC2(Cc3ccccc3)CCC2)[nH]c1=O` [Example 9, N-((1-benzylcyclobutyl)methyl)-5-methyl-6-oxo-1,6-dihydropyrimidine-2-carboxamide], the “mPTP Rat brain pIC50” value in assay [1] stood at 7.33. Moreover, the “mPTP Rat liver pIC50” value in assay [2] was determined as 6.14.
Regarding `Cn1nc(C(=O)NCC2(Cc3ccccc3)CCC2)[nH]c1=O` [Example 10, N-((1-benzylcyclobutyl)methyl)-1-methyl-5-oxo-4,5-dihydro-1H-1,2,4-triazole-3-carboxamide], the “mPTP Rat brain pIC50” value in assay [1] was 7.42. Moreover, in assay [2], the “mPTP Rat liver pIC50” value is 6.58.
As to `CN(CC1(Cc2ccccc2)CCC1)C(=O)c1cncc(O)n1` [Example 11, N-((1-benzylcyclobutyl)methyl)-6-hydroxy-N-methylpyrazine-2-carboxamide], in assay [1], the “mPTP Rat brain pIC50” value is 6.48. Besides, in assay [2], the “mPTP Rat liver pIC50” value was 5.18.
As to `CC(C)(CNC(=O)c1cncc(O)n1)Cc1ccccc1` [Example 12, N-(2,2-dimethyl-3-phenylpropyl)-6-hydroxypyrazine-2-carboxamide], the “mPTP Rat brain pIC50” value in assay [1] is 7.08. The “mPTP Rat liver pIC50” value in assay [2] is recorded as 5.70.
